Columns and labels:
Musca domestica [1] = assay: whole plant or invertebrate; settings: 24 h, read-out: grading of mortality, MD
[2] = test system: Tetranychus urticae (spider mites - adult); assay: whole plant or invertebrate; settings: in Phaseolus vulgaris, 72 h, read-out: grading of mortality, TUa
Phytophthora infestans = type: in vivo; settings: 100 ppm foliar spray plus root drench ca. 40 ppm a.i./dry soil, one or two days before inoculation
Plasmopara viticola = assay: foliar fungal disease control on plants, Plasmopara viticola on vine; type: in vivo; settings: 100 ppm foliar spray plus root drench ca. 40 ppm a.i./dry soil, one or two days before inoculation
Procedure: (§1) The technique employed was as follows.
(§2) The plants were grown in John Innes Potting Compost (No. 1 or 2) in 4 cm diameter minipots. The test compounds were formulated either by bead milling with aqueous Dispersol T or as a solution in acetone or acetone/ethanol which was diluted to the required concentration immediately before use. For the foliage diseases, the formulations (100 ppm active ingredient) were sprayed on to the foliage and applied to the roots of the plants in the soil. The sprays were applied to maximum retention and the root drenches to a final concentration equivalent to approximately 40 ppm a.i./dry soil. Tween 20, to give a final concentration of 0.05%, was added when the sprays were applied to cereals.
(§3) For most of the tests the compound was applied to the soil (roots) and to the foliage (by spraying) one or two days before the plant was inoculated with the disease. An exception was the test on Erysiphe graminis in which the plants were inoculated 24 hours before treatment. Foliar pathogens were applied by spray as spore suspensions onto the leaves of test plants. After inoculation, the plants were put into an appropriate environment to allow infection to proceed and then incubated until the disease was ready for assessment. The period between inoculation and assessment varied from four to fourteen days according to the disease and environment.
(§4) The disease control was recorded by the following grading: […]

Pyricularia oryzae = type: in vivo; settings: 100 ppm foliar spray plus root drench ca. 40 ppm a.i./dry soil, one or two days before inoculation
Myzus persicae = assay: whole plant or invertebrate; settings: in Brassica rapa, 72 h, read-out: grading of mortality, MP
Diabrotica balteata = assay: whole plant or invertebrate; settings: in Zea mays, 72 h, read-out: grading of mortality, DB
Nephotettix cincticeps = assay: whole plant or invertebrate; settings: in Oryza sativa, 72 h, read-out: grading of mortality, NC
Erysiphe graminis = assay: foliar fungal disease control on plants, Erysiphe graminis on barley; type: in vivo; settings: 100 ppm foliar spray plus root drench ca. 40 ppm a.i./dry soil; inoculated 24 hours before treatment
Procedure: as §1, §2, §3, §4

Heliothis virescens = assay: insecticidal test, tobacco budworm - larvae; type: in vivo; settings: in Gossypium hirsutum, 72 h, read-out: grading of mortality, HV
Procedure: (§5) The activity of the compounds was determined using a variety of insect, mite and nematode pests. The compounds were used in the form of liquid preparations containing 500 parts per million (ppm) by weight of the compound except for the test on Meloidogyne incognita when liquid preparations of 250 ppm by weight were used. The preparations were made by dissolving the compounds in acetone and diluting the solutions with water containing 0.1% by weight of a wetting agent sold under the trade name "SYNPERONIC" NX until the liquid preparations contained the required concentration of the product. "SYNPERONIC" is a Registered Trade Mark.
(§6) The test procedure adopted with regard to each pest was basically the same and comprised supporting a number of the pests on a medium which was usually a host plant or a foodstuff on which the pests feed, and treating either or both the pests and the medium with the preparations. The mortality of the pests was then assessed at periods usually varying from one to seven days after the treatment.
(§7) The results of the tests are given in Table IX for each of the products as a grading of mortality designated as 9, 5 or 0 where 9 indicates 80-100% mortality (70-100% root-knot reduction as compared with untreated plants for Meloidogyne incognita), 5 indicates 50-79% mortality (50-69% root knot reduction for Meloidogyne incognita) and 0 indicates less than 50% mortality (root-knot reduction for Meloidogyne incognita).
(§8) In Table IX the pest organism used in designated by a letter code and the pests species, the support medium or food, and the type and duration of test is given in Table VII.

Blattella germanica = assay: whole plant or invertebrate; settings: 72 h, read-out: grading of mortality, BG
Cercospora arachidicola = assay: foliar fungal disease control on plants, Cercospora arachidicola on peanut; type: in vivo; settings: 100 ppm foliar spray plus root drench ca. 40 ppm a.i./dry soil, one or two days before inoculation
Procedure: as §1, §2, §3, §4

[3] = test system: Tetranyhus urticae (spider mites - ova); assay: whole plant or invertebrate; settings: 144 h, read-out: grading of mortality, TUe
Venturia inaequalis = assay: foliar fungal disease control on plants, Venturia inaequalis on apple; type: in vivo; settings: 100 ppm foliar spray plus root drench ca. 40 ppm a.i./dry soil, one or two days before inoculation
Procedure: as §1, §2, §3, §4

Meloidogyne incognita = assay: nematode test, tomato root knot eelworm - larvae, semi in-vitro; type: in vivo; settings: 250 ppm, residual, 7 days
Procedure: as §5, §6, §7, §8

Puccinia recondita = assay: foliar fungal disease control on plants, Puccinia recondita on wheat; type: in vivo; settings: 100 ppm foliar spray plus root drench ca. 40 ppm a.i./dry soil, one or two days before inoculation
Procedure: as §1, §2, §3, §4

Nilaparvata lugens = assay: whole plant or invertebrate; settings: in Oryza sativa, 72 h, read-out: grading of mortality, NL
Spodoptera exigua = assay: whole plant or invertebrate; settings: in Gossypium hirsutum, 72 h, read-out: grading of mortality, SP
Musca domestica [4] = assay: knockdown properties against houseflies; type: in vivo; settings: 2000 ppm solution (1 ml) sprayed directly
Procedure: A sample of compound 3 was diluted in 2 mls acetone and made upto a 2000 ppm solution with 0.1% aqueous synperonic solution. The solution (1 ml) was then sprayed directly onto twenty mixed sex houseflies held in a drinking cup. Immediately after spraying the cups were inverted and left to dry. An assessment of knockdown was made when the cups were righted 15 minutes later. The flies were then provided with a 10% sucrose solution on a cotton wool pad, and held for 48 hours in a holding room conditioned at 25° C. and 65% relative humidity before a mortality assessment was made.

SMILES	mortality at 500 ppm (Musca domestica [1]) [%]	mortality at 500 ppm [2] [%]	disease control grading, PH[…] (TOMATOES) (Phytophthora infestans)	disease control grading, […] (Vine) (Plasmopara viticola)	disease control grading, P[…] (Rice) (Pyricularia oryzae)	mortality at 500 ppm (Myzus persicae) [%]	mortality at 500 ppm (Diabrotica balteata) [%]	mortality at 500 ppm (Nephotettix cincticeps) [%]	disease control grading, ERYSIPHE GRAMINIS (Barley) (Erysiphe graminis)	mortality at 500 ppm (Heliothis virescens) [%]	mortality at 500 ppm (Blattella germanica) [%]	disease control grading, CERCOSPCRA ARACHIDICOLA (Peanut) (Cercospora arachidicola)	mortality at 500 ppm [3] [%]	disease control grading, VENTURIA INAEQUALIS (Apple) (Venturia inaequalis)	grading of root-knot reduction, MI (Meloidogyne incognita)	disease control grading, PUCCINIA RECONDITA (Wheat) (Puccinia recondita)	mortality at 500 ppm (Nilaparvata lugens) [%]	mortality at 500 ppm (Spodoptera exigua) [%]	knockdown (Musca domestica [4]; 15 minutes) [%]	kill (Musca domestica [4]; 48 hours, 25° C., 65% relative humidity) [%]
CO/C=C(/C(=O)OC)n1cccc1/C=C/C(=O)OC	< 50	80 to 100	4	4	4	< 50	< 50	50 to 79	4	< 50	80 to 100	2 (6-25% of disease on untreated plants)	< 50	4	0 (less than 50% mortality (root-knot reduction for Meloidogyne incognita))	4				
CO/C=C(/C(=O)OC)n1cccc1/C=N/OCc1ccccc1 [Compound 5 of Table I]			0 (60-100% of disease on untreated plants)	4	4				3 (trace - 5% of disease on untreated plants)			3 (trace - 5% of disease on untreated plants)		4		3 (trace - 5% of disease on untreated plants)				
C#CCO/N=C/c1cccn1/C(=C\OC)C(=O)OC [Compound 7 of Table I]	< 50	80 to 100	3 (trace - 5% of disease on untreated plants)	4	4	< 50	80 to 100		4		50 to 79	4	< 50	4	0 (less than 50% mortality (root-knot reduction for Meloidogyne incognita))	4	< 50			
C=CCO/N=C/c1cccn1/C(=C\OC)C(=O)OC [Compound 3 of Table I]	80 to 100	80 to 100	0 (60-100% of disease on untreated plants)	4		< 50	80 to 100		4	< 50	80 to 100	4	< 50	4	5 (50-69% root knot reduction for Meloidogyne incognita)	4	80 to 100	< 50	90	93
CCOC(=O)/C(C#N)=C/c1cccn1/C(=C\OC)C(=O)OC [Compound 19 of Table I]			0 (60-100% of disease on untreated plants)	4	0 (60-100% of disease on untreated plants)				0 (60-100% of disease on untreated plants)			3 (trace - 5% of disease on untreated plants)		0 (60-100% of disease on untreated plants)		4				

From US4883807A, “1,2,5,6-tetrahydropyridyl triazoles and tetrazoles useful as fungicides” (Imperial Chemical Industries PLC, priority 1986, dated 1989)
